# Measurements as given in patent US5773646A, “Meta-substituted phenylene derivatives” (G. D. Searle & Co., priority 1997, dated 1998).
# Structures can show the parent of a compound that is named as a salt.
# Key:
# [1] = molecular target: T1, Human fibrinogen receptor (αIIb β3) (Homo sapiens, UniProt P05106+P08514); test: Purified IIb/IIIa receptor assay (solid phase receptor assay, biotinylated vitronectin competition); conditions: inhibition of 50% of the maximum binding of biotinylated vitronectin; 1 nM labeled ligand, 2 hours, room temperature, highest concentration of test compound 1.0×10^-4 M
# T1 construct: Human fibrinogen receptor (αIIb β3) was purified from outdated platelets; from tissue; host or cells: outdated human platelets
# Method in brief: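 Platelet-purified αIIbβ3 was coated at 100 ng/well in TBS with 1 mM Ca²⁺/Mg²⁺/Mn²⁺, pH 7.4, then BSA-blocked. Compound (up to 1.0×10⁻⁴ M final) competed with 1 nM biotinylated vitronectin for 2 h at room temperature. Bound ligand was detected with HRP anti-biotin at A450, normalized to maximum binding, and curve-fitted.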
# [2] = molecular target: T2, Human vitronectin receptor (αv β3) (Homo sapiens, UniProt P05106+P06756); test: Vitronectin adhesion assay (solid phase receptor assay, biotinylated vitronectin competition); assay type: binding; conditions: inhibition of 50% of the maximum binding of biotinylated vitronectin; 1 nM labeled ligand, 2 hours, room temperature, highest concentration of test compound 1.0×10^-4 M; read-out: AvB3 IC50
# T2 construct: Human vitronectin receptor(αv β3) was purified from human placenta; from tissue; host or cells: human placenta
# Method in brief: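 Placenta-purified αvβ3 coated at 1.0 μg/mL in TBS (1 mM Ca, Mg, Mn, pH 7.4), overnight 4 °C. Compound competed 2 h at RT with 1 nM biotinylated vitronectin (final; top compound 1.0×10^-4 M); bound ligand detected by HRP anti-biotin/OPD at 450 nm, normalized to no-competitor controls, four-parameter fit.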
IC50 [1],IC50 [2],Structure (SMILES)
9.75 µM,0.0304 µM,"O=C(O)CCc1cccc(OCC(O)c2cccc(NC3=NCCN3)c2)c1 (stereo not drawn) [Example 71, 3-[2-[3-[(4,5-dihydro-1H-imidazol-2-yl)amino]phenyl]-2-hydroxyethoxy]benzenepropanoic acid, trifluoroacetate salt]"
8.1 µM,0.168 µM,"O=C(O)COc1cccc(C(=O)/C=C/c2cccc(NC3=NCCN3)c2)c1 [Example 72, 2-[3-[3-[3-[(4,5-dihydro-1H-imidazol-2-yl)amino]phenyl]-1-oxo-2-propenyl]phenoxy]acetic acid, trifluoroacetate salt hydrate]"
11.3 µM,0.589 µM,"N=C(N)Nc1cccc(/C=C/C(=O)c2cccc(OCC(=O)O)c2)c1 [Example 73, 2-[3-[3-[3-[(aminoiminomethyl)amino]phenyl]-1-oxopropenyl]phenoxy]acetic acid, monohydrochloride]"
20.1 µM,1.48 µM,"N=C(N)Nc1cccc(C#Cc2cccc(C(CC(=O)O)c3ccccc3)c2)c1 (stereo not drawn) [Example 74, 3-[2-[3-[(aminoiminomethyl)amino]phenyl]ethynyl]-β-phenylbenzenepropanoic acid, trifluoroacetate salt]"
6.15 µM,0.0545 µM,"N=C(N)Nc1cccc(/C=C/c2cccc(C(CC(=O)O)c3ccccc3)c2)c1 (stereo not drawn) [Example 75, 3-[2E-[3-[(aminoiminomethyl)amino]phenyl]ethenyl]-β-phenylbenzenepropanoic Acid, Bis(trifluoroacetate) Salt]"
1.77 µM,0.087 µM,"N=C(N)Nc1cccc(/C=C\c2cccc(C(CC(=O)O)c3ccccc3)c2)c1 (stereo not drawn) [Example 76, 3-[2Z-[3-[(aminoiminomethyl)amino]phenyl]ethenyl]-β-phenylbenzenepropanoic Acid, Bis(trifluoroacetate) Salt]"
5.82 µM,0.0325 µM,"N=C(N)Nc1cccc(S(=O)(=O)Nc2cccc(C(CC(=O)O)c3cc(Cl)cc(Cl)c3)c2)c1 (stereo not drawn) [Example 77, β-[3-[[[3-[(aminoiminomethyl)amino]phenyl]sulfonyl]amino]phenyl]-3,5-dichlorobenzene Propanoic Acid, Trifluoroacetate Salt]"
0.803 µM,0.00254 µM,"N=C(N)Nc1cccc(S(=O)(=O)Nc2cccc(C(CC(=O)O)c3cc(F)cc(F)c3)c2)c1 (stereo not drawn) [Example 78, β-[3-[[[3-[(aminoiminomethyl)amino]phenyl]sulfonyl]amino]phenyl]-3,5-difluorobenzenepropanoic Acid, Trifluoroacetate Salt]"
0.327 µM,0.01 µM,"N=C(N)Nc1cccc(S(=O)(=O)Nc2cccc(C(CC(=O)O)c3ccc(F)cc3)c2)c1 (stereo not drawn) [Example 79, β-[3-[[[3-[(aminoiminomethyl)amino]phenyl]sulfonyl]amino]phenyl]-4-fluorobenzenepropanoic Acid, Trifluoroacetate Salt]"
1.37 µM,0.013 µM,"N=C(N)Nc1cccc(S(=O)(=O)Nc2cccc(C(CC(=O)O)c3cc(F)c(F)c(F)c3)c2)c1 (stereo not drawn) [Example 80, β-[3-[[[3-[(aminoiminomethyl)amino]phenyl]sulfonyl]amino]phenyl]-3,4,5-trifluorobenzenepropanoic Acid, Trifluoroacetate Salt]"
2.55 µM,0.086 µM,"N=C(N)Nc1cccc(S(=O)(=O)Nc2cccc(C(CC(=O)O)c3c(F)c(F)c(F)c(F)c3F)c2)c1 (stereo not drawn) [Example 81, β-[3-[[[3-[(aminoiminomethyl)amino]phenyl]sulfonyl]amino]phenyl]perfluorobenzenepropanoic Acid, Trifluoroacetate Salt]"
11.7 µM,0.191 µM,"N=C(N)Nc1cccc(S(=O)(=O)Nc2cccc(C(CC(=O)O)c3c(F)c(F)cc(F)c3F)c2)c1 (stereo not drawn) [Example 82, β-[3-[[[3-[(aminoiminomethyl)amino]phenyl]sulfonyl]amino]phenyl]-2,3,5,6-tetrafluorobenzenepropanoic Acid, Trifluoroacetate Salt]"
18.9 µM,0.122 µM,"O=C(O)CC(c1cc(F)cc(F)c1)c1cccc(NS(=O)(=O)c2cccc(NC(=S)NCc3ccccc3)c2)c1 (stereo not drawn) [Example 83, 3,5-difluoro-β-[3-[[[3-[[[(phenylmethyl)amino]thiocarbonyl]amino]phenyl]sulfonyl]amino]phenyl]benzenepropanoic Acid]"
15.1 µM,0.082 µM,"O=C(O)CC(c1cc(F)cc(F)c1)c1cccc(NS(=O)(=O)c2cccc(NC=NCc3ccccc3)c2)c1 (stereo not drawn) [Example 84, 3,5-difluoro-β-[3-[[[3-[[[(phenylmethyl)imino]methyl]amino]phenyl]sulfonyl]amino]phenyl]benzenepropanoic Acid, Trifluoroacetate Salt]"
3.3 µM,0.0512 µM,"N=C(N)Nc1cccc(SCc2cccc(C(CC(=O)O)c3ccccc3)c2)c1 (stereo not drawn) [Example 87, 3-[[3-[(aminoiminomethyl)amino]phenylthio]methyl]-β-phenylbenzenepropanoic Acid, Trifluoroacetate Salt]"
0.87 µM,0.0196 µM,"N=C(N)Nc1cccc([S+]([O-])Cc2cccc(C(CC(=O)O)c3ccccc3)c2)c1 (stereo not drawn) [Example 88, 3-[[[3-[(aminoiminomethyl)amino]phenyl]sulfinyl]methyl]-β-phenylbenzenepropanoic Acid, Trifluoroacetate Salt]"
0.799 µM,0.00456 µM,"N=C(N)Nc1cccc(S(=O)(=O)Cc2cccc(C(CC(=O)O)c3ccccc3)c2)c1 (stereo not drawn) [Example 89, 3-[[[3-[(aminoiminomethyl)amino]phenyl]sulfonyl]methyl]-β-phenylbenzenepropanoic Acid, Trifluoroacetate Salt]"
13.8 µM,0.0889 µM,"NC(=O)N=C(N)Nc1cccc(S(=O)(=O)Nc2cccc(C(CC(=O)O)c3cc(Cl)cc(Cl)c3)c2)c1 (stereo not drawn) [Example 90, β-[3-[[[3-[[amino[(aminocarbonyl)imino]methyl]amino]phenyl]sulfonyl]amino]phenyl]-3,5-dichlorobenzenepropanoic Acid, Trifluoroacetate Salt]"
1.07 µM,0.00839 µM,"NC(=O)N=C(N)Nc1cccc(S(=O)(=O)Nc2cccc(C(CC(=O)O)c3cc(F)cc(F)c3)c2)c1 (stereo not drawn) [Example 91, β-[3-[[[3-[[amino[(aminocarbonyl)imino]methyl]amino]phenyl]sulfonyl]amino]phenyl]-3,5-difluorobenzenepropanoic Acid, Trifluoroacetate Salt]"
2.05 µM,0.0121 µM,"CCC(CC(=O)O)c1cccc(NS(=O)(=O)c2cccc(NC(=N)N)c2)c1 (stereo not drawn) [Example 94, 3-[[[3-[(aminoiminomethyl)amino]phenyl]sulfonyl]amino]-β-ethylbenzenepropanoic Acid, Trifluoroacetate Salt]"
8.45 µM,0.0357 µM,"CCC(CC(=O)O)c1cccc(NS(=O)(=O)c2cccc(NC(N)=NC(N)=O)c2)c1 (stereo not drawn) [Example 95, 3-[[[3-[[amino[(aminocarbonyl)imino]methyl]amino]phenyl]sulfonyl]amino]-β-ethylbenzenepropanoic Acid, Trifluoroacetate Salt]"
2.28 µM,0.435 µM,"N=C(N)Nc1cccc(COc2cccc(C(CC(=O)O)c3ccccc3)c2)c1 (stereo not drawn) [Example 96, 3-[[3-[(aminoiminomethyl)amino]phenyl]methoxy]-β-phenylbenzenepropanoic Acid, Trifluoroacetate Salt]"
0.262 µM,0.00075 µM,"O=C(O)CC(c1cc(F)cc(F)c1)c1cccc(NS(=O)(=O)c2cccc(NC3=NCCCN3)c2)c1 (stereo not drawn) [Example 97, 3,5-difluoro-β-[3-[[[3-[(1,4,5,6-tetrahydropyrimidin-2-yl)amino]phenyl]sulfonyl]amino]phenyl]benzenepropanoic Acid, Bis(trifluoroacetate) Salt]"
0.642 µM,0.00085 µM,"O=C(O)CC(c1cc(F)cc(F)c1)c1cccc(NS(=O)(=O)c2cccc(NC3=NCCN3)c2)c1 (stereo not drawn) [Example 98, β-[3-[[[3-[(4,5-dihydro-1H-imidazol-2-yl)amino]phenyl]sulfonyl]amino]phenyl]-3,5-difluorobenzenepropanoic Acid, Trifluoroacetate Salt]"
1 µM,0.0486 µM,"O=C(O)CC(c1ccccc1)c1cccc(OCc2cccc(NC3=NCCN3)c2)c1 (stereo not drawn) [Example 99, 3-[[3-[(4,5-dihydro-1H-imidazol-2-yl)amino]phenyl]methoxy]-β-phenylbenzenepropanoic Acid, Trifluoroacetate Salt]"
2.34 µM,0.0218 µM,"N=C(N)Nc1cccc(S(=O)(=O)Nc2cccc(C3CC(=O)Oc4ccccc43)c2)c1 (stereo not drawn) [Example 100, 3-[(aminoiminomethyl)amino]-N-[3-(3,4-dihydro-2-oxo-2H-benzopyran-4-yl)phenyl]benzenesulfonamide, Trifluoroacetate Salt]"
3.25 µM,0.0503 µM,"O=C1CC(c2cccc(NS(=O)(=O)c3cccc(NC4=NCCN4)c3)c2)c2ccccc2O1 (stereo not drawn) [Example 101, 3-[(4,5-dihydro-1H-imidazol-2-yl)amino]-N-[3-(3,4-dihydro-2-oxo-2H-benzopyran-4-yl)phenyl]benzenesulfonamide, Trifluoroacetate Salt]"
